Laboratory results from patent US20240216410A1, “METHODS AND COMPOSITIONS FOR TREATING CANCER THERAPY-INDUCED NEUTROPENIC FEVER AND/OR GVHD” (BOARD OF REGENTS, THE UNIVERSITY OF TEXAS SYSTEM, priority 2021, published 2024).
“Also recorded” adds a separate entry of the source.

Legend:
[1] = Meropenem concentration in stool of mice given meropenem in drinking water; type: in vivo; settings: mouse, oral; 0.625 g/L in drinking water; normal SPF mice; stool 48 hours after starting; median±SE; read-out: meropenem concentration in fecal samples
Method: To further explore a potential causal relationship between meropenem and intestinal GVHD, the effects of meropenem on GVHD in a mouse model of allo-HSCT were examined. A method of administering meropenem to mice was first developed that would better mimic the effects of meropenem on the intestinal microbiome of patients, which is typically given every 8 hours intravenously. Previously, antibiotics were administered subcutaneously to mice (25), and meropenem concentrations were quantified in the cecal lumen of mice 4, 8, 24, 48 and 96 hours after subcutaneous injection. […] Next, drinking water was evaluated as a means of continuously administering meropenem to mice, using bacterial density quantified by 16S ribosomal RNA (16S rRNA) gene quantitative PCR (qPCR) to gauge reductions of the intestinal microbiota.
Murine isolates of Enterococcus faecalis (MDA-JAX EF001), Clostridium disporicum (MDA-JAX CD001), Clostridium saudiense (MDA-JAX CS001), and Lachnospiraceae unclassified (MDA-JAX LS001) were also tested.
Antibiotics administration.

[2] = system: intestinal microbiota; assay: Murine GVHD model: fecal microbiome composition (16S rRNA sequencing) and bacterial density (qPCR); type: in vivo, mice
Method: Effects of meropenem treatment on the composition of the intestinal microbiota of allo-HSCT mice were also examined (FIG. 15F).
Sequencing of 16S rRNA gene amplicons. Fecal samples from patients and mice were weighed before DNA isolation. In brief, genomic DNA was isolated using the QIAAMP® DNA mini kit (51306, QIAGEN®) according to the manufacturer's protocol that was modified to include an intensive bead-beating lysis step. The V4 region of 16S rRNA gene was amplified by PCR from 100 ng of each of extracted and purified genomic DNA using 515 forward and 806 reverse primer pairs (59). The quality and quantity of the barcoded amplicons were assessed on an Agilent 4200 TapeStation system (Agilent) and QUBIT™ Fluorometer (THERMO FISHER […]™), and libraries were prepared after pooling at equimolar ratios. The final libraries were purified using […]® gel extraction kit (28706X4, QIAGEN®) and sequenced with a 2×250 base pair paired-end protocol on the […]® MISEQ™ platform.
Microbiome data analysis. Sequencing data from paired-end reads were de-multiplexed using QIIME 2 (60). Merging of paired-end reads, dereplicating, and length filtering was performed using VSEARCH 2.17.1 (61). Following de-noising and chimera calling using the unoise3 command (62), unique sequences were taxonomically classified with mothur (63) using the Silva database (64) version 138. Weighted UniFrac distances (65) were determined using QIIME 2, visualized using principal coordinate analysis, and evaluated for statistical significance using permutational multivariate analysis of variance (PERMANOVA) testing. For differential abundance analysis, abundances of sequences belonging to taxonomical groups were included for analysis using the Mann-Whitney U test and adjusted for multiple comparisons using the method of Benjamini and Hochberg. Paired samples were analyzed using the Wilcoxon signed rank test with adjustment for multiple comparisons.
Quantification of fecal bacterial density. Genomic DNA was isolated from stool as described above. qPCR was performed as previously described (66). In brief, 16S rRNA gene sequences were amplified from total fecal DNA using the primers 926F (5′-[…]-3′, where K is a G or a T; SEQ ID NO:2) and 1062R (5′-[…]-3′, where R is an A or a G; SEQ ID NO:3). Real-time PCR were carried out in 96-well optical plates on QUANTSTUDIO™ Flex 6 RT PCR (APPLIED BIOSYSTEMS™) and KAPA SYBR® FAST Master Mix (Roche). The PCR conditions included one initial denaturing step of 10 min at 95° C. and 40 cycles of 95° C. for 20 sec and 60 °C for 1 min. Melting-curve analysis was performed after amplification. To determined bacterial density, a plasmid with a 16S rRNA gene of a murine Blautia isolate was generated in the pCR4 backbone and used as a standard.

[3] = system: Clostridium saudiense (MDA-JAX CS001); assay: MIC of meropenem by MIC test strips; type: cell-based; settings: mouse-derived
Method: (§1) The minimum inhibitory concentration (MIC) of meropenem against murine BT was quantified using MIC test strips (Table 4).
(§2) Culturing of bacteria. Mouse-derived BT (MDA-JAX BT001), Enterococcus faecalis (MDA-JAX EF001) and Clostridium disporicum (MDA-JAX CD001), Clostridium saudiense (MDA-JAX CS001), and Lachnospiraceae unclassified (MDA-JAX LS001) were isolated and cultured from mouse stool samples suspended in 1 ml of chilled 20% anaerobic glycerol in a Whitley anaerobic chamber (10% H2, 5% CO2 and 85% N2). Human-derived BT (ATCC 29148) was purchased from ATCC. Bacterial number was quantified using a Nexcelom Cellometer cell counter with SYTO™ BC dye and propidium iodide. For measuring MICs against meropenem, bacteria were cultured on BYE plates including 5% sterilized rumen fluid (Fisher Scientific) with MIC test strips (LIOFILCHEM™ MTS™ Meropenem [MRP] 0.016-256 μg/mL, THERMO FISHER […]™)). Bacterial growth experiments were in liquid media were performed in a novel bacterial media, BYEM10, composed of a hybrid of BHI and M10 supplemented with yeast extract (Table 5).

[4] = system: Enterococcus faecalis (MDA-JAX EF001); assay: MIC of meropenem by MIC test strips; type: cell-based; settings: mouse-derived
Method: as §1, §2

[5] = system: Bacteroides thetaiotaomicron (MDA-JAX BT001); assay: MIC of meropenem by MIC test strips; type: cell-based; settings: mouse-derived BT
Method: as §1, §2

[6] = system: Bacteroides thetaiotaomicron (ATCC 29148); assay: MIC of meropenem by MIC test strips; type: cell-based; settings: ATCC29148, human-derived BT
Method: as §1, §2

[7] = system: Clostridium disporicum (MDA-JAX CD001); assay: MIC of meropenem by MIC test strips; type: cell-based; settings: mouse-derived
Method: as §1, §2

[8] = system: Lachnospiraceae unclassified (MDA-JAX LS001); assay: MIC of meropenem by MIC test strips; type: cell-based; settings: mouse-derived
Method: as §1, §2

Structure (SMILES): C[C@@H](O)[C@H]1C(=O)N2C(C(=O)O)=C(S[C@@H]3CN[C@H](C(=O)N(C)C)C3)[C@H](C)[C@H]12 [meropenem]
- concentration at 48 h [1]: 110 ± 70 ng/g
- abundance of murine BT ([2]; allo-HSCT mice, days 0, 7, 14, 21): suppressed by meropenem-supplemented drinking water but quickly expanded after cessation of meropenem therapy; also recorded: higher abundances of BT
- abundance of Clostridia ([2]; allogeneic mice, days 0, 7, 14, 21): significantly decreased; also recorded: depleted
- fecal bacterial density ([2]; day 14 after allo-HSCT, during meropenem treatment): significantly decreased bacterial density
- fecal bacterial density ([2]; day 21, 6 days after stopping meropenem): recovered to a level similar to that of untreated syngeneic and allogeneic mice
- alpha diversity (inverse Simpson index) ([2]; fecal samples day 21): significantly reduced
- bacterial genera depleted ([2]; fecal samples day 21): many genera were depleted, including Blautia, Lachnoclostridium, and other members of Lachnospiraceae
- bacterial genera with increased abundance ([2]; fecal samples day 21): significantly higher abundances of bacteria from several genera, including most substantially Bacteroides, as well as Enterococcus, Erysipelatoclostridium, Bifidobacterium and Akkermansia
- MIC [3]: 0.38 µg/mL
- MIC [4]: 12 µg/mL
- MIC [5]: 4 µg/mL
- MIC [6]: 6 µg/mL
- MIC [7]: 0.094 µg/mL
- MIC [8]: 0.38 µg/mL
